Each structure is given as a SMILES string.

The test system of the experiment is intraperitoneal MDA-MB-435 xenograft tumors. In words: Tumor reduction study, peritoneal carcinomatosis. The experiment is classed as in vivo, SCID-mice. Conditions: 6×1.85 MBq i.p., days 16-26 after inoculation, groups of 8 mice; p = 0.04.

Protocol: To generate intraperitoneal xenograft tumors, 6–8 week old SCID-mice (Charles River, Sulzfeld, Germany) were injected i.p. with 1×10^7 MDA-MB435 tumor cells. Mice were weighed weekly and were sacrificed when the mean normal body weigth decreased <25% or when mice developped tumor side effects like ascites or reduced general condititon. All experiments were performed according to the German law for the protection of animals.
SCID-mice (Charles River, Sulzfeld, Germany) were injected i.p. with 1×10^7 MDA-MB-435 cells expressing firefly luciferase in 100 µl PBS. […] All experiments were performed three times. The animals were controlled daily until they were sacrificed.

Molecule `O=C([O-])CN(CCN(CC(=O)[O-])CC(=O)[O-])CCN(CC(=O)[O-])CC(=O)[O-].[213Bi+3]` [^213Bi-DTPA] showed a mean survival of 48 days.

For the origin of these results see PMC2682652 (PLoS ONE, 2009).
